Test results taken from PMC6754442, “Structure of Csx1-cOA4 complex reveals the basis of RNA decay in Type III-B CRISPR-Cas” (Nature Communications, 2019).

What was measured:
[1] = target: T1, SisCsx1 (Saccharolobus islandicus, UniProt F0NE21); assay: fluorescent dark-RNA cleavage (activation dose response); format: biochemical; conditions: 1-128 nM cOA4, 34 nM SisCsx1, 0.2 µM dark-RNA, 70 °C, 3 min; allosteric activator
T1 construct: gene SiRe_0884; full-length His-tagged, expressed from pSe-Csx1 in S. islandicus delta-csx1 delta-alpha; 300 kDa hexamer (trimer of dimers); CARF-HTH-HEPN; cOA4 site between two CARF domains; residues printed up to A454
T1 sequence (F0NE21 1-454): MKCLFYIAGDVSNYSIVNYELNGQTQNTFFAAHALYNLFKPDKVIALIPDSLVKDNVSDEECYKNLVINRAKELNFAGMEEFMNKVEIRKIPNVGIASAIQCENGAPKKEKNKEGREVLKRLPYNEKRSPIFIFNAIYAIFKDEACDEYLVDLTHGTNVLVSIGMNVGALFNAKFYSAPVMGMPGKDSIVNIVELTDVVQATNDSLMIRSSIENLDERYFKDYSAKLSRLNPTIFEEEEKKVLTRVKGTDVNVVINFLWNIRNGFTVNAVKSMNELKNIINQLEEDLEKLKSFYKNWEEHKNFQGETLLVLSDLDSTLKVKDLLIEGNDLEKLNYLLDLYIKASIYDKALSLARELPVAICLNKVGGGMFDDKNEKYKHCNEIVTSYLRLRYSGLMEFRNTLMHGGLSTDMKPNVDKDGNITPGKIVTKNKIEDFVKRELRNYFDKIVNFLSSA

[2] = target: T1, SisCsx1; assay: native gel shift with […]-labelled cOA4; format: binding
[3] = target: Sulfolobus islandicus Csx1 (Sulfolobus islandicus); assay: SEC-MALS; Superdex 200 Increase 10/300 GL, room temperature, 20 mM Tris pH 8.0, 300 mM NaCl; 50 ul injected at 1.9 mg/ml
[4] = target: Sulfolobus islandicus Csx1 I383A/L390D/R391A mutant (Sulfolobus islandicus); assay: as above

Nc1ncnc2c1ncn2[C@@H]1O[C@@H]2COP(=O)(O)O[C@H]3[C@@H](O)[C@H](n4cnc5c(N)ncnc54)O[C@@H]3COP(=O)(O)O[C@H]3[C@@H](O)[C@H](n4cnc5c(N)ncnc54)O[C@@H]3COP(=O)(O)O[C@H]3[C@@H](O)[C@H](n4cnc5c(N)ncnc54)O[C@@H]3COP(=O)(O)O[C@H]2[C@H]1O [cOA4]
fluorescent dark-RNA cleavage (activation dose response) [1]: cleavage of a ssRNA substrate was quantified in the presence of increasing amounts of cOA4
Kd [2]: ~18 nM

Sulfolobus islandicus Csx1 (enzyme)
stoichiometry N [3]: 6

Sulfolobus islandicus Csx1 I383A/L390D/R391A mutant (enzyme)
stoichiometry N [4]: 2
